Entries after “also recorded” stand apart in the source; their conditions may differ.
T1: Uch-L1 (Mus musculus, UniProt Q9R0P9)
T1 construct: hippocampal tissue was treated with tissue protein extraction reagent; from tissue; host or cells: mouse hippocampal slices (C57/BL6 or APP/PS1 and WT littermates)
T1 sequence (Q9R0P9 1-220): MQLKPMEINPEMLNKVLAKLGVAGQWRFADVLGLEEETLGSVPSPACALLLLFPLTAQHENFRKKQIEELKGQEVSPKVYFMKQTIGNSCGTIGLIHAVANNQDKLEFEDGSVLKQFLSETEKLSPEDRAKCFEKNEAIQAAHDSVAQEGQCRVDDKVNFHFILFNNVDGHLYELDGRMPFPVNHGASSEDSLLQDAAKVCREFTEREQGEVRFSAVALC


How the values were obtained:
[1] = molecular target: T1, Uch-L1; assay: Hydrolase (ubiquitin-AMC) assay on hippocampal slices; type: cell-based
Procedure: (§1) Slice preparation. Mice were decapitated and their hippocampi removed. […] Slices were permitted to recover from cutting for at least 90 min. before recordings. For experiments with lactacystin, slices were perfused with the drug or vehicle for 2 to 4 hrs in a small volume (10 ml) chamber.
(§2) Briefly, hippocampal tissue was treated with tissue protein extraction reagent (T-PER; Pierce) containing freshly added EDTA-free protease inhibitors. Homogenate was centrifuged at 10,000 rpm for 5 min. Protein concentration was measured in the supernatant using the BCA protein assay reagent. In some experiments hydrolysis was initiated by adding 10 μl of 20 nM Uch-L1 or Uch-L3 (Boston Biochem). The hydrolase assay was performed using fluorogenic ubiquitin-7-amino-4-methylcoumarin (ubiquitin-AMC) (Boston Biochem) as a substrate. The substrate was diluted in assay buffer (50 mM Tris-HCL, 0.5 mM EDTA, 5 mM dithiothreitol and 0.1 mg/ml ovalbumin, pH 7.6). Each reaction mixture containing 400 nM substrate and 100 μg enzyme sample was incubated for 5 min at room temperature. The reaction was monitored using a fluorescence spectrophotometer (CytoFluor Series 4000, ABI Inc) at 25° C. The free AMC fluorophore was excited at 380 nm and measured at 460 nm. […] In some experiments, hydrolysis was also measured on the soluble and insoluble fractions (FIG. 28D). In a group of experiments hydrolysis was measured by mixing ubiquitin-AMC with 20 nM TAT fusion proteins (FIG. 27C). In other experiments the substrate was Nedd8-AMC (Boston Biochem).

[2] = system: Uch-L1; assay: as above; type: cell-based, mouse
Procedure: as §1, §2

[3] = system: PKA RIIα; assay: PKA RIIα levels in hippocampal slices (Western blot); type: cell-based, mouse; conditions: for Aβ-induced increase in PKA RIIα levels (words): fusion protein 20 nM 1 hr, Aβ 200 nM 20 min
Procedure: Western Blotting: Protein levels were assessed using standard procedures. Protein extraction was performed using buffer with and without detergent. For the extraction of protein using detergent, hippocampal tissues and cultured hippocampal neurons (5 DIV) were homogenized in RIPA buffer (50 mM Tris-HCl pH 7.4, 1% Triton X-100, 1% sodium deoxycholate, 0.1% SDS, 150 mM sodium chloride, 10 mM sodium fluoride, 30 mM sodium pyrophosphate, 50 mM sodium orthovanadate) containing 1× complete protease inhibitor (Roche) and 1 mM phenylmethylsulfonyl fluoride (PMSF). For extraction of proteins without detergent, hippocampal extracts were homogenized with disposable dounce homogenizers in buffer A, containing 10 mM HEPES pH 7.3, 300 mM sucrose, protease 1× complete protease inhibitor (Roche) and PMSF. After centrifugation at 10,000×g supernatant proteins were resolved on a 8% or 4-20% gradient Tris-Glycine gel, transferred onto PVDF or nitrocellulose membrane and blocked in 5% skim milk in PBS-Tween 0.1% (PBS-T). Membranes were probed with primary antibodies, and after washing with PBS-T incubated with an appropriate HRP-conjugated secondary antibody. The following antibodies were used: mouse monoclonal anti-ubiquitin (Chemicon), rabbit polyclonal anti-pCREB (Upstate Biotech.), rabbit polyclonal anti-PKA-RIIα (Santa Cruz Biotech. Inc), mouse monoclonal anti-Uch-L1 (Novocastra), monoclonal mouse anti-HA (Santa Cruz Biotech. Inc), and anti-PKA IIα. Detection was performed using HRP-conjugated secondary antibodies (Pierce, Rockford, Ill.). To control loading and transfer, protein immunoreactivities were normalized against total extracellular signal-regulated protein kinases (ERK1/2) levels with a rabbit analyzed using a rabbit polyclonal anti-ERK1/2 antibody (Cell Signaling Technology, Inc). NIH IMAGE was used to analyze the scanned blots and quantify the intensity of the protein signals.

Molecule	reduction of enzymatic activity ([1]; 1 μM LDN)	reduction of enzymatic activity ([1]; 2.7 μM LDN, 2-4 hour perfusion)	inhibition of enzymatic activity ([1]; 5 μM LDN, 15 minute perfusion)	reduction of activity ([1]; 5 μM LDN, 2 hour exposure)	Maximal inhibition of Uch activity ([1]; 5 μM LDN, one hour (60 min))	Uch activity in APP/PS1 slices ([1]; 5 μM for 2 hrs)	Ubiquitin-C-Terminal hydrolase activity ([1]; 5 μM for 4 hrs)	Uch-L1 hydrolase activity ([1]; LDN-57444 perfusion (5 μM, 4 hrs))	enzymatic activity ([1]; WT and APP/PS1 slices, 5 μM LDN, 2 hours)	Uch activity ([2]; 20 nM fusion protein 1 hr pre-incubation, 200 nM Aβ 20 min)	ubiquitin-c-terminal hydrolase enzymatic activity ([2]; 20 nM fusion protein 1 hr, then 200 nM Aβ plus fusion protein)	enzymatic (Uch) activity ([2]; fusion protein alone)	enzymatic activity ([2]; fusion protein alone for 1 hr)	Uch activity ([2]; slices from 4 month APP/PS1 mice, 20 nM for 1 hr)	IIα regulatory subunit levels ([3]; 20 nM TAT-HA-Uch-L1 1 hr pretreatment plus Aβ42)	Aβ-induced increase in PKA RIIα levels (words) [3]	Aβ-induced increase in PKA RIIα levels (words) ([3]; listed as TAT-Uch-L1 fusion protein)	Aβ-induced increase in PKA RIIα levels (words) ([3]; listed as Uch-L1 fusion protein)
CC(=O)O/N=C1\C(=O)N(Cc2cc(Cl)ccc2Cl)c2ccc(Cl)cc21 [LDN-57444, reference compound]	20%	~40%	20%	70%	70%	further reduced Uch activity	decreased	less than 30 % of vehicle-treated controls	~70 % of values in vehicle treated WT slices	–	–	–	–	–	–	–	–	–
TAT-HA-Uch-L1: fusion protein: 11-amino acid transduction domain of HIV-transactivator protein (TAT) fused with an HA tag and human Uch-L1 (protein, left off: small tags and cut ends) MQLKPMEINPEMLNKVLSRLGVAGQWRFVDVLGLEEESLGSVPAPACALLLLFPLTAQHENFRKKQIEELKGQEVSPKVYFMKQTIGNSCGTIGLIHAVANNQDKLGFEDGSVLKQFLSETEKMSPEDRAKCFEKNEAIQAAHDAVAQEGQCRVDDKVNFHFILFNNVDGHLYELDGRMPFPVNHGASSEDTLLKDAAKVCREFTEREQGEVRFSAVALCKAA	–	–	–	–	–	–	–	–	–	normal monoubiquitin levels and Uch activity are maintained; also recorded: re-established normal ubiquitin-C-terminal hydrolase activity; also recorded: re-established normal Uch activity	98.40±5.76 % of TAT-HA treated WT slices	slight increase	148.63±12.01 % of TAT-HA treated slices	Uch activity is restored	121.03±14.10 % of control	blocked by pretreatment; also recorded: re-established normal levels of regulatory subunit; also recorded: re-established normal levels of RIIα	blocks the increase	blocked
